Test results published in PubChem BioAssay (NCI).
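Tested at 5 concentrations; 48 h exposure; 96-well plates; endpoints linearly interpolated, else capped at highest concentration. TGI: concentration producing complete growth inhibition.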 Where a SMILES comes first, the peptide text is derived from it. The star is where a group is joined. Boc = CC(C)(C)OC(=O)*; OBn = c1ccc(CO*)cc1

How the values were obtained:
Test in all cases: growth of human tumour cells (NCI), 48 h
SR leukemia = system: SR leukemia
NCI-H522 lung = system: NCI-H522 lung
OVCAR-3 ovarian = system: OVCAR-3 ovarian
HOP-62 NSCLC = system: HOP-62 NSCLC
PC-3 prostate = system: PC-3 prostate
SF-539 CNS = system: SF-539 CNS
UACC-62 melanoma = system: UACC-62 melanoma
KM12 colon = system: KM12 colon
CCRF-CEM leukemia = system: CCRF-CEM leukemia
RXF 393 renal = system: RXF 393 renal

Compound | TGI (SR leukemia) [µM] | TGI (NCI-H522 lung) [µM] | TGI (OVCAR-3 ovarian) [µM] | TGI (HOP-62 NSCLC) [µM] | TGI (PC-3 prostate) [µM] | TGI (SF-539 CNS) [µM] | TGI (UACC-62 melanoma) [µM] | TGI (KM12 colon) [µM] | TGI (CCRF-CEM leukemia) [µM] | TGI (RXF 393 renal) [µM]
COc1cc(C2SCC(=O)N2c2ccc(Oc3ccc(Cl)cc3)c(Cl)c2)cc(OC)c1OC (stereo unspecified) | > 100 | 37.1 | 31.1 | 35.2 | 28.9 | 54.2 | 30.9 | 46 | – | –
O=C1c2cccc3cccc(c23)C(=O)N1CCCNOCCONCCCN1C(=O)c2cccc3cccc(c23)C1=O | > 100 | – | > 100 | > 100 | > 100 | – | > 100 | > 100 | 91.6 | > 100
COc1cc2c(cc1OC)-c1c3c(cc4c1[C@@H](C2)N(C)CC4)OCO3 | – | 21.1 | 44.6 | 20.7 | – | 16.5 | 20.2 | 45.1 | 39.4 | 19.2
O=C(NCCCNCCNC(=O)c1cc(-c2ccccc2)nc2ccccc12)c1cc(-c2ccccc2)nc2ccccc12 | 8.73 | 3.14 | 3.6 | 3.06 | 3.09 | 3.57 | – | 3.55 | 3.42 | –
COc1ccc(OC)c2c1C1CCC(=O)N1CN2C(C)=O (stereo unspecified) | – | > 100 | > 100 | > 100 | > 100 | > 100 | > 100 | > 100 | > 100 | > 100
Cc1c(NC2(C)C(=O)N(/N=C/c3ccccc3)N=C2c2ccccc2)n[nH]c1-c1ccccc1 (stereo unspecified) | – | > 100 | > 100 | > 100 | > 100 | > 100 | > 100 | > 100 | > 100 | > 100
COC(=O)C1(Cc2ccccc2)Cc2ccccc2C1 | > 100 | – | – | > 100 | > 100 | > 100 | 75.6 | > 100 | 42.4 | –
C[n+]1c2ccccc2c(C(=O)Nc2ccc(S(=O)(=O)N=C(N)N)cc2)c2ccccc21 | – | > 100 | > 100 | > 100 | > 100 | > 100 | > 100 | > 100 | – | –
O=C(N[C@H]1c2ccsc2/C(=N/O)[C@H]1O)C(F)(F)F | > 100 | – | > 100 | > 100 | > 100 | > 100 | > 100 | – | > 100 | > 100
CC(=O)c1cc2c(s1)C(=O)c1ccccc1C2=O | > 100 | 3.5 | 11.1 | > 100 | > 100 | 8.32 | 7.01 | 11.5 | – | 28
S=C(S)NCC1CCC(CNC(=S)S)CC1 (stereo unspecified) | – | 28 | 30.3 | 42.9 | 37.5 | > 100 | > 100 | 42.5 | > 100 | 40.6
COc1ccc(/C=C2\N=C(c3ccccc3)N(C3Nc4cc5c(cc4S3)NC(N3C(=O)/C(=C/c4ccc(OC)cc4)N=C3c3ccccc3)S5)C2=O)cc1 (stereo unspecified) | > 100 | 45.2 | > 100 | > 100 | > 100 | 29.2 | – | > 100 | – | > 100
CCCCOCn1c(=O)[nH]c(=O)c2cc(Br)ccc21 | > 100 | – | > 100 | – | > 100 | > 100 | > 100 | > 100 | > 100 | > 100
CCc1ccc2c(c1)CC1(C2)Cc2cc3c(cc2C1)C(=O)CC3 (stereo unspecified) | – | 57.3 | 42.8 | 78.5 | 64.1 | 61.4 | > 100 | > 100 | 8.31 | > 100
Cc1c2c(OCCCCN3CCN(c4ncccn4)CC3)nn(C)c(=O)c2c(C)n1-c1ccccc1 | – | 38.2 | 41.9 | 57.8 | 37.3 | 32.6 | 31 | 43.1 | > 100 | 41.8
C=CC[C@@]1(C(=O)OC)[C@H](Sc2ccccc2)C1(C)C | – | 87.9 | > 100 | > 100 | > 100 | > 100 | > 100 | > 100 | > 100 | –
CC(C)(C)OC(=O)NC(Cc1ccccc1)C(=O)NC(Cc1ccccc1)C(=O)NCC(=O)OCc1ccccc1 (stereo not drawn) (Boc-Phe-Phe-Gly-OBn; configuration not given here) | 44.6 | 48.8 | 46.1 | 91.7 | 35.8 | 44.1 | 38.7 | – | 43.1 | –
C[C@]12CC[C@@H]3c4ccc(OC(=O)c5ccccc5)cc4CC[C@H]3[C@@H]1CC[C@@H]2Oc1c2ccccc2nc2ccccc12 | > 50 | 46 | 14.8 | 15.7 | 17.7 | – | > 50 | 44 | 21.2 | 15.8
C[C@]12CC[C@H](O)CC1=CC[C@@H]1[C@@H]2CC[C@]2(C)/C(=N/OCCN3CCCC3)CC[C@@H]12 | 35.5 | 25.7 | 31.1 | 53.2 | 39.4 | 28.1 | 30.1 | 26.9 | – | 29.3
CN(C)CCCOCCn1c2c(c3ccccc31)CCCC2 | 41 | – | 53.1 | 28.3 | 32.6 | 33.2 | 31.1 | 43.1 | 30 | –
NCCCCNCCCNC(=O)c1nc(-c2csc(CCN)n2)sc1Cl | > 100 | > 100 | > 100 | > 100 | – | > 100 | > 100 | > 100 | > 100 | > 100
c1ccc2c(c1)nc1n2CCSC1 | > 100 | – | > 100 | > 100 | > 100 | > 100 | > 100 | > 100 | > 100 | > 100
CCOC(=O)C(CS)NC(=O)CCCCCCCC(=O)NC(CS)C(=O)OCC (stereo unspecified) | > 100 | > 100 | > 100 | > 100 | > 100 | > 100 | > 100 | > 100 | > 100 | –
O=c1[nH]c(N/N=C\C(O)C(O)C(O)CO)nc2ccccc12 (stereo unspecified) | > 100 | – | > 100 | > 100 | > 100 | > 100 | > 100 | > 100 | > 100 | –
